Reference: US5510366A, “Indole derivatives, salts thereof, and congestive heart failure therapeutic agents comprising the same” (Kowa Co., Ltd., priority 1993, dated 1996)
Structures can show the parent of a compound that is named as a salt.

test system: hind-leg blood flow; assay: Action on hind-leg blood flow in anesthetized dogs; assay type: in vivo, Hybrid adult dogs; conditions: 100 μg into femoral artery
Description: <Action on hind-leg blood flow in anesthetized dogs>
Hybrid adult dogs were anesthetized by intravenous injection of 30 mg/kg of sodium pentobarbital. After administration of heparin, an extracorporeal circulation circuit was formed in femoral artery. The blood flows at hind-legs were measured by fixing an electromagnetic blood flow meter probe in the circuit. The test compound at a dose of 100 μg was administered into femoral artery via a tube provided in the circuit. The results in Table 3 show the rate of blood flow increase.

Q: For `Cc1cc2c(c3c1NC(=O)C3(C)C)OC(CN)C2.Cl` (centres unmarked) [Example 1 (a), 2-Aminomethyl-2,3,7,8-tetrahydro-5,8,8-trimethyl-6H-furo 2,3-e!indol-7-onehydrochloride], which “Rate of blood flow increase (%)” value is on record?
A: Its value is 192%.

same assay, conditions: Canis lupus familiaris, 100 μg into femoral artery, read-out: Rate of blood flow increase (%)

Q: Which change in vivo at 0.1 mg does the source give for `Cc1cc2c(c3c1NC(=O)C3(C)C)OCC2CN` (centres unmarked) [Example 13 (3), 3-Aminomethyl-2,3,7,8-tetrahydro-5,8,8-trimethyl-6H-furo 2,3-e!indol-7-one.cndot.hydrochloride] here?
A: Its change in vivo at 0.1 mg is 55%.

Q: For `Cc1cc2c(c3c1NC(=O)C3(C)C)OC(Cn1ccnc1)C2` (centres unmarked) [Example 16, 2-(1-Imidazolyl)methyl-2,3,7,8-tetrahydro-5,8,8-trimethyl-6H-furo 2,3-e!indol-7-one.cndot.hydrochloride], which change in vivo at 0.1 mg is on record?
A: The change in vivo at 0.1 mg was 90%.

Q: How did the change in vivo at 0.1 mg turn out when `COc1ccc(C(=O)N2CCN(CC3Cc4cc(C)c5c(c4O3)C(C)(C)C(=O)N5)CC2)cc1OC` (centres unmarked) [Example 23, 2-4-(3,4-dimethoxybenzoyl)-1-piperadinyl!methyl-2,3,7,8-tetrahydro-5,8,8-trimethyl-6H-furo 2,3-e!indol-7-one.cndot.hydrochloride] was run?
A: The change in vivo at 0.1 mg was 81%.

Q: With `CCCCNCC1Cc2cc(C)c3c(c2O1)C(C)(C)C(=O)N3` (centres unmarked) [Example 18, 2-n-Butylaminomethyl-2,3,7,8-tetrahydro-5,8,8-trimethyl-6H-furo 2,3-e!indol-7-one.cndot.hydrochloride] as the compound, how does the change in vivo at 0.1 mg read?
A: The change in vivo at 0.1 mg was 145%.

Q: With `Cc1cc2c(c3c1NC(=O)C3(C)C)OC(CN1CCN(Cc3ccccc3)CC1)C2` (centres unmarked) [Example 20, 2-(4-Benzyl-1-piperadinyl)methyl-2,3,7,8-tetrahydro-5,8,8-trimethyl-6H-furo 2,3-e!indol-7-one.cndot.dihydrochloride] as the compound, how does the change in vivo at 0.1 mg read?
A: Its change in vivo at 0.1 mg is 96%.

Q: `Cc1cc2c(c3c1NC(=O)C3(C)C)OC(CN1CCNCC1)C2` (centres unmarked) [Example 22, 2-(1-Piperadinyl)methyl-2,3,7,8-tetrahydro-5,8,8-trimethyl-6H-furo 2,3-e!in dol-7-one.cndot.dihydrochloride] was tested. Which change in vivo at 0.1 mg did it give?
A: Its change in vivo at 0.1 mg is 121%.

Q: How did the change in vivo at 0.1 mg turn out when `Cc1cc2c(c3c1NC(=O)C3(C)C)O[C@@](C)(CN)[C@@H]2C` (relative stereo) [Example 55 (B isomer), (2R*,3R*)-2-aminomethyl-2,3,5,8,8-pentamethyl-2,3,7,8-tetrahydro-6H-furo 2 ,3-e!indol-7one.cndot.hydrochloride] was run?
A: Its change in vivo at 0.1 mg is 55%.

Q: With `CCc1cc2c(c3c1NC(=O)C3(C)C)OC(CN)C2` (centres unmarked) [Example 26 (6), 2-Aminomethyl-8,8-dimethyl-5-ethyl-2,3,7,8-tetrahydro-6H-furo 2,3-e!indol-7-one.cndot.hydrochloride] as the compound, how does the change in vivo at 0.1 mg read?
A: The change in vivo at 0.1 mg was 216%.

Q: With `Cc1cc2c(c3c1NC(=O)C3(C)C)O[C@@H](CN)[C@@H]2C` (relative stereo) [Example 3 (5) (Former component), (2R*,3R*)-2-aminomethyl-2,3,7,8-tetrahydro-3,5,8,8-tetramethyl-6H-furo 2,3-e!indol-7-one.cndot.hydrochloride] as the compound, how does the change in vivo at 0.1 mg read?
A: The change in vivo at 0.1 mg was 128%.

test system: atrium specimen; assay: Inotropic action in atrium specimen and anti-chronotropic action in guinea pigs; conditions: Cavia porcellus; guinea pig atrium; 10^-5 M; "light atrium", left atrium stimulated at 1 Hz; read-out: Rate contraction increase (%)
Description: <Inoropic action in atrium specimen and anti-chronotropic action in guinea pigs>
After bruising on the head, guinea pigs were dehematized by sectioning carotid arteries and their heart was enucleated. Right and left atriums were taken out. These atriums were suspended in Krebs-Henseleit solution wherein 95% O2-5 % CO2 was bubbled. The tension was measured by a strain gauge and recorded via an amplifier. Pulsation at the right atrium was counted via a tachometer to determine the heart rate. Electric stimulation, twice a magnitude of the ceiling value at 1 Hz, 5 msec, was given to the left atrium. The test compound was administered at an interval of 5 minutes.
The results, shown in Table 2, indicate the rate of contraction increase of the light atrium at a dose of 10^-5 M of the test compound.

Q: `CCCCCCc1cc2c(c3c1NC(=O)C3(C)C)OC(CN)C2` (centres unmarked) [Example 25 (9), 2-Aminomethyl-8,8-dimethyl-5-n-hexyl-2,3,7,8-tetrahydro-6H-furo 2,3-e!indol-7-one.cndot.hydrochloride] was tested. Which activation at 10 µM did it give?
A: The activation at 10 µM was 46%.

Q: `Cc1c(C)c2c(c3c1CC(CN)O3)C(C)(C)C(=O)N2` (centres unmarked) [Example 30 (8)HCl, 2-Aminomethyl-2,3,7,8-tetrahydro-4,5,8,8-tetramethyl-6H-furo 2,3-e!indol-7-one.cndot.hydrochloride] was tested. Which activation at 10 µM did it give?
A: The activation at 10 µM was 28%.

Q: With `Cc1cc2c(c3c1NC(=O)C3(C)C)OC(CN1CCCCC1)C2` (centres unmarked) [Example 19, 2-(1-Piperidinyl)methyl-2,3,7,8-tetrahydro-5,8,8-trimethyl-6H-furo 2,3-e!in dol-7-one.cndot.hydrochloride] as the compound, how does the activation at 10 µM read?
A: The activation at 10 µM was 28%.

Q: `Cc1cc2c(c3c1NC(=O)C3(C)C)OC(CN)C2` (centres unmarked) [Example 1 (9), 2-Aminomethyl-2,3,7,8-tetrahydro-5,8,8-trimethyl-6H-furo 2,3-e!indol-7-onehydrochloride] was tested. Which activation at 10 µM did it give?
A: Its activation at 10 µM is 13%.

Q: For `Cc1cc2c(c3c1NC(=O)C3(C)C)OC(C)(CN)C2` (centres unmarked) [Example 2 (8), 2-Aminomethyl-2,3,7,8-tetrahydro-2,5,8,8-tetramethyl-6H-furo 2,3-e!indol-7-one.cndot.hydrochloride], which activation at 10 µM is on record?
A: Its activation at 10 µM is 23%.

Q: `CC[C@H]1c2cc(C)c3c(c2O[C@H]1CN)C(C)(C)C(=O)N3` (relative stereo) [Example 7 (6)(b), (2R* ,3S*)-2-aminomethyl-3-ethyl-2,3,7,8-tetrahydro-5,8,8-trimethyl-6H-furo 2,3-e!indol-7-one.cndot.hydrochloride] was tested. Which activation at 10 µM did it give?
A: The activation at 10 µM was 27%.

Q: Which activation at 10 µM does the source give for `Cc1cc2c(c3c1NC(=O)C3(C)C)O[C@@](C)(CN)[C@@H]2C` (relative stereo) [Example 55 (B isomer), (2R*,3R*)-2-aminomethyl-2,3,5,8,8-pentamethyl-2,3,7,8-tetrahydro-6H-furo 2 ,3-e!indol-7one.cndot.hydrochloride] here?
A: Its activation at 10 µM is 24%.

Q: With `CNCC1Cc2cc(C)c3c(c2O1)C(C)(C)C(=O)N3` (centres unmarked) [Example 14, 2-Methylaminomethyl-2,3,7,8-tetrahydro-5,8,8-trimethyl-6H-furo 2,3-e!indol-7-one.cndot.hydrochloride] as the compound, how does the activation at 10 µM read?
A: The activation at 10 µM was 20%.

test system: ventricular fibrillation; assay: Antiarrhythmic action against chloroform in mice (suppression of ventricular fibrillation); assay type: in vivo; conditions: Mus musculus, 20 min, 100 mg/kg, 20 minutes before chloroform, read-out: Rate of suppression (%) of ventricular fibrillation
Description: <Antiarrhythmic action against chloroform in mice>
A test compound was administered to mice at a dose of 100 mg/kg. After 20 minutes, mice were placed in a pot filled with chloroform. Mice were taken out immediately after respiratory arrest. Electrocardiogram was recorded at the 11th induction, and ventricular tachycardia, ventricular fibrillation, and the time until cardiac arrest were measured.

Q: Which inhibition in vivo at 100 mg/kg does the source give for `CCCCCCc1cc2c(c3c1NC(=O)C3(C)C)OC(CN)C2` (centres unmarked) [Example 25 (9), 2-Aminomethyl-8,8-dimethyl-5-n-hexyl-2,3,7,8-tetrahydro-6H-furo 2,3-e!indol-7-one.cndot.hydrochloride] here?
A: The inhibition in vivo at 100 mg/kg was 100%.

Q: Which inhibition in vivo at 100 mg/kg does the source give for `Cc1cc2c(c3c1NC(=O)C3(C)C)OC(Cn1ccnc1)C2` (centres unmarked) [Example 16, 2-(1-Imidazolyl)methyl-2,3,7,8-tetrahydro-5,8,8-trimethyl-6H-furo 2,3-e!indol-7-one.cndot.hydrochloride] here?
A: Its inhibition in vivo at 100 mg/kg is 90%.

Q: How did the inhibition in vivo at 100 mg/kg turn out when `CCOC(=O)c1cc2c3c(ccc2[nH]1)CC(CN)O3` (centres unmarked) [Example 47 (5), 2-Aminomethyl-2,3-dihydro-7-ethoxycarbonyl-6H-furo 2,3-e!indole.cndot.hydrochloride] was run?
A: Its inhibition in vivo at 100 mg/kg is 90%.

Q: How did the inhibition in vivo at 100 mg/kg turn out when `Cc1cc2c(c3c1NC(=O)C3(C)C)OC(CN(C)C)C2` (centres unmarked) [Example 17, 2-Dimethylaminomethyl-2,3,7,8-tetrahydro-5,8,8-trimethyl-6H-furo 2,3-e!indol-7-one.cndot.hydrochloride] was run?
A: The inhibition in vivo at 100 mg/kg was 100%.

Q: How did the inhibition in vivo at 100 mg/kg turn out when `Cc1cc2c(c3c1NC(=O)C3(C)C)OC(CNCc1ccccc1)C2` (centres unmarked) [Example 15, 2-Benzylaminomethyl-2,3,7,8-tetrahydro-5,8,8-trimethyl-6H-furo 2,3-e!indol-7-one.cndot.hydrochloride] was run?
A: Its inhibition in vivo at 100 mg/kg is 100%.

Q: `CCCCc1cc2c(c3c1NC(=O)C3(C)C)OC(CN)C2` (centres unmarked) [Example 28 (9)HCl, 2Aminomethyl-5-n-butyl-8,8-dimethyl-2,3,7,8-tetrahydro-6H-furo 2,3-e!indol-7-one.cndot.hydrochloride] was tested. Which inhibition in vivo at 100 mg/kg did it give?
A: The inhibition in vivo at 100 mg/kg was 90%.

Q: `Cc1cc2c(c3c1NC(=S)C3(C)C)O[C@@H](CN)[C@@H]2C` (relative stereo) [Example 35, (2R*,3R*)-2-aminomethyl-2,3,7,8-tetrahydro-3,5,8,8-tetramethyl-6H-furo 2,3-e!indol-7-thione.cndot.hydrochloride] was tested. Which inhibition in vivo at 100 mg/kg did it give?
A: Its inhibition in vivo at 100 mg/kg is 100%.

same assay, conditions: Mus musculus, 20 min, Dose: 30 mg/kg, 20 minutes before chloroform, read-out: Rate of suppression (%) of ventricular fibrillation

Q: For `Cc1cc2c(c3c1NC(=O)C3(C)C)O[C@@](C)(CN)[C@@H]2C` (relative stereo) [Example 55 (B isomer), (2R*,3R*)-2-aminomethyl-2,3,5,8,8-pentamethyl-2,3,7,8-tetrahydro-6H-furo 2 ,3-e!indol-7one.cndot.hydrochloride], which inhibition in vivo at 30 mg/kg is on record?
A: Its inhibition in vivo at 30 mg/kg is 100%.
